“And” between values parts separate entries of the source, which are not always exact repeats. Identical values can stand only once. “Also recorded” adds a separate entry of the source. Like-named read-outs stand apart in the source and are kept apart here.
Columns and labels:
M. tuberculosis H37Rv [1] = assay: M. tuberculosis H37Rv inhibition assays (MIC); type: cell-based, Mycobacterium tuberculosis; settings: for MIC: M. tuberculosis H37Rv
mtFabH [2] = target: T1, mtFabH (Mycobacterium tuberculosis, UniProt P9WNG3); assay: mtFabH inhibition assay; type: biochemical
T1 sequence (P9WNG3 2-335): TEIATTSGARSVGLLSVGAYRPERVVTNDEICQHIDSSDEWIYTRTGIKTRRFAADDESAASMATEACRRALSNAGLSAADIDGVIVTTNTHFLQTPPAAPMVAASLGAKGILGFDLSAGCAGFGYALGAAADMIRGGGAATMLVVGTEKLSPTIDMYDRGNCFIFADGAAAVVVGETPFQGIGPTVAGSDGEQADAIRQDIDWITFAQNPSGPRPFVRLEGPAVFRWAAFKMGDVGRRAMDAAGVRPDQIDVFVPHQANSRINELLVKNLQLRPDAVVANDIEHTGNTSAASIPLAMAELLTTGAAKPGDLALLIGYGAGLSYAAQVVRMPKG

FAS-I = FAS-I assay; type: biochemical
Protocol: (§1) The molecules under investigation were designed to inhibit mtFabH in the mycobacterial FAS-II system, with selectivity over the related mammalian FAS-I system. To examine selectivity, the compounds were assessed using the procedures of Brown et al. and Slayden et al..
FAS-I and FAS-II experiments were conducted as per Slayden et al. (1996) using the 40–80% ammonium sulphate fraction. The standard reaction mixture for the incorporation of radioactivity from [2-^14C]malonyl-CoA into C16 to C24 fatty acids catalysed by FAS-I was composed as follows: 100 mM Tris.HCl pH 7.9, 5 mM EDTA, 5 mM dithiothreitol, 300 µM acetyl-CoA, 100 µM NADPH, 100 µM NADH, 1 µM flavin mononucleotide, 500 µM α-cyclodextrin, 300 µM CoA-SH, 100,000 cpm of [2-^14C] malonyl-CoA (specific activity 53 Ci/mol), test compound (0.5–200 µg/ml) and 2 mg of cytosolic enzyme preparation in a total volume of 500 µl. Similarly, the standard reaction mixture for incorporation of radioactivity from [2-^14C]malonyl-CoA into C24 to C30 fatty acids catalysed by FAS-II contained the following: 100 mM potassium phosphate buffer (pH 7.0), 5 mM EDTA, 5 mM dithiothreitol, 10 µM palmitoyl-CoA, 140 µM NADPH, 140 µM NADH, 100 µg of AcpM, 40 µM malonyl-CoA, 200,000 cpm of [2-^14C]malonyl-CoA (specific activity 53 Ci/mol), test compound (0.5–200 µg/ml) and 200 mg of cytosolic enzyme preparation in a total volume of 250 µl. […]

FAS-II = FAS-II assay; type: biochemical
Protocol: as §1
FAS-I and FAS-II experiments were conducted as per Slayden et al. (1996) using the 40–80% ammonium sulphate fraction. The standard reaction mixture for the incorporation of radioactivity from [2-^14C]malonyl-CoA into C16 to C24 fatty acids catalysed by FAS-I was composed as follows: 100 mM Tris.HCl pH 7.9, 5 mM EDTA, 5 mM dithiothreitol, 300 µM acetyl-CoA, 100 µM NADPH, 100 µM NADH, 1 µM flavin mononucleotide, 500 µM α-cyclodextrin, 300 µM CoA-SH, 100,000 cpm of [2-^14C] malonyl-CoA (specific activity 53 Ci/mol), test compound (0.5–200 µg/ml) and 2 mg of cytosolic enzyme preparation in a total volume of 500 µl. Similarly, the standard reaction mixture for incorporation of radioactivity from [2-^14C]malonyl-CoA into C24 to C30 fatty acids catalysed by FAS-II contained the following: 100 mM potassium phosphate buffer (pH 7.0), 5 mM EDTA, 5 mM dithiothreitol, 10 µM palmitoyl-CoA, 140 µM NADPH, 140 µM NADH, 100 µg of AcpM, 40 µM malonyl-CoA, 200,000 cpm of [2-^14C]malonyl-CoA (specific activity 53 Ci/mol), test compound (0.5–200 µg/ml) and 200 mg of cytosolic enzyme preparation in a total volume of 250 µl. In both the FAS-I and FAS-II assays, reactions were performed in triplicate at 37°C for 30 min and terminated by the addition of 250 µl of 20% potassium hydroxide in 50% methanol at 100°C for 45 min. Following acidification with 150 µl of 6 M HCl, the resultant ^14C-labelled fatty acids were extracted three times with petroleum ether. The organic extracts were pooled, washed once with an equal volume of water, and dried in a scintillation vial prior to counting.

mtFabH [3] = target: T1, mtFabH; settings: cited from earlier work
M. tuberculosis H37Rv [4] = settings: cited from earlier work
[5] = no reference given; cited from earlier work
[6] = mouse model; no reference given; cited from earlier work
[7] = Mycobacterium tuberculosis, N/A = no inhibition observed at 200 µg/ml, read-out: TB MIC (class N/A)
[8] = N/A = no inhibition observed at 200 µg/ml, read-out: mtFabH IC50 (class N/A)
[9] = read-out: mtFabH IC50 (converted)
[10] = Mycobacterium tuberculosis, read-out: TB MIC

## COC(=O)c1nc(N)sc1-c1cccc(Cl)c1 [Compound 8, Methyl 2-amino-5-(3-chlorophenyl)thiazole-4-carboxylate]
other
  melting point: 229 to 232 °C
M. tuberculosis H37Rv [1]
  inhibition of M. tuberculosis H37Rv (in words): inactive
M. tuberculosis H37Rv [1]; [7]
  MIC: > 200 µg/mL
mtFabH [2]; [8]
  IC50: > 744 µM

## Nc1nc(C(=O)O)c(-c2ccccc2)s1 [Compound 10, 2-amino-5-phenylthiazole-4-carboxylic acid]
other
  melting point: 242 to 243 °C
M. tuberculosis H37Rv [1]
  inhibition of M. tuberculosis H37Rv (in words): inactive
M. tuberculosis H37Rv [1]; [7]
  MIC: > 200 µg/mL
mtFabH [2]; [8]
  IC50: > 908 µM

## O=C(CBr)Nc1nc(C(=O)O)c(Cc2ccccc2)s1 [Compound 19, 5-Benzyl-2-(2-bromoacetamido)thiazole-4-carboxylic acid]
other
  melting point: 220 to 222 °C
M. tuberculosis H37Rv [1]; [7]
  MIC: > 200 µg/mL
mtFabH [2]; [9]
  IC50: 633 µM and 718 µM
FAS-I
  inhibition of FAS-I (in words): inhibited both FAS-I and FAS-II
FAS-II
  inhibition of FAS-II (in words): inhibited both FAS-I and FAS-II

## Cc1sc(NC(=O)CBr)nc1C(=O)O [Compound 16, 2-(2-Bromoacetamido)-5-methylthiazole-4-carboxylic acid]
other
  melting point: 218 to 220 °C
M. tuberculosis H37Rv [1]; [7]
  MIC: > 200 µg/mL
mtFabH [2]
  inhibition of mtFabH (in words): failed to inhibit
mtFabH [2]; [8]
  IC50: > 717 µM

## COC(=O)c1nc(NC(=O)CBr)sc1C [Compound 13, Methyl 2-(2-bromoacetamido)-5-methylthiazole-4-carboxylate]
other
  melting point: 220 to 222 °C
M. tuberculosis H37Rv [1]; [7]
  MIC: > 200 µg/mL
mtFabH [2]
  inhibition of mtFabH (in words): fails to inhibit
mtFabH [2]; [8]
  IC50: > 682 µM

## COC(=O)c1nc(N)sc1C [Compound 6, Methyl 2-amino-5-methylthiazole-4-carboxylate]
other
  melting point: 165 to 168 °C
M. tuberculosis H37Rv [1]; [10]
  MIC: 16 µg/mL and 93 µM
mtFabH [2]; [8]
  IC50: > 1160 µM

## COC(=O)c1nc(NC(=O)CBr)sc1Cc1ccccc1 [Compound 15, Methyl 5-benzyl-2-(2-bromoacetamido)thiazole-4-carboxylate]
other
  melting point: 218 to 220 °C
M. tuberculosis H37Rv [1]; [7]
  MIC: > 200 µg/mL
mtFabH [2]; [9]
  IC50: 160 µM
FAS-I
  inhibition of FAS-I (in words): failed to inhibit the FAS enzymes
FAS-II
  inhibition of FAS-II (in words): failed to inhibit the FAS enzymes

## O=C(CBr)Nc1nc(C(=O)O)c(-c2ccccc2)s1 [Compound 17, 2-(2-Bromoacetamido)-5-phenylthiazole-4-carboxylic acid]
other
  melting point: 208 to 210 °C
M. tuberculosis H37Rv [1]; [7]
  MIC: > 200 µg/mL
mtFabH [2]
  inhibition of mtFabH (in words): failed to inhibit
mtFabH [2]; [8]
  IC50: > 586 µM

## CC1=C(O)C(C)(Cc2ccc(-c3ccc(C(=O)O)cc3)cc2)SC1=O (centres unmarked) [Compound 4]
mtFabH [3]
  IC50: 3.1 µM and 3 µM

## Cc1sc(N)nc1C(=O)O [Compound 9, 2-amino-5-methylthiazole-4-carboxylic acid]
M. tuberculosis H37Rv [1]; [10]
  MIC: 0.06 µg/mL and 0.35 µM
mtFabH [2]; [8]
  IC50: > 1260 µM

## Nc1nc(C(=O)O)c(Cc2ccccc2)s1 [Compound 12, 2-amino-5-benzylthiazole-4-carboxylic acid]
other
  melting point: 300 to 302 °C
M. tuberculosis H37Rv [1]
  inhibition of M. tuberculosis H37Rv (in words): inactive
M. tuberculosis H37Rv [1]; [7]
  MIC: > 200 µg/mL
mtFabH [2]; [8]
  IC50: > 854 µM

## NNC(=O)c1ccncc1 [INH, isoniazid]
M. tuberculosis H37Rv [4]
  MIC: 0.25 µg/ml and 1.8 µM
[5]
  logP: −1.1

## O=C(CBr)Nc1nc(C(=O)O)c(-c2cccc(Cl)c2)s1 [Compound 18, 2-(2-Bromoacetamido)-5-(3-chlorophenyl)thiazole-4-carboxylic acid]
other
  melting point: 228 to 230 °C
M. tuberculosis H37Rv [1]; [7]
  MIC: > 200 µg/mL
mtFabH [2]
  inhibition of mtFabH (in words): failed to inhibit; also recorded: inactive
mtFabH [2]; [8]
  IC50: > 532 µM

## COC(=O)c1nc(N)sc1Cc1ccccc1 [Compound 2, methyl 2-amino-5-benzylthiazole-4-carboxylate]
M. tuberculosis H37Rv [1]; read-out: TB MIC
  MIC: 0.24 µM
M. tuberculosis H37Rv [1]; [10]
  MIC: 0.06 µg/mL and 0.24 µM
mtFabH [2]
  inhibition of mtFabH (in words): no activity
mtFabH [2]; [8]
  IC50: > 805 µM

## COC(=O)c1nc(N)sc1-c1ccccc1 [Compound 7, Methyl 2-amino-5-phenylthiazole-4-carboxylate]
other
  melting point: 218 to 221 °C
M. tuberculosis H37Rv [1]
  inhibition of M. tuberculosis H37Rv (in words): inactivity
M. tuberculosis H37Rv [1]; [7]
  MIC: > 200 µg/mL
mtFabH [2]; [8]
  IC50: > 854 µM

## C=C/C(C)=C/[C@@]1(C)SC(=O)C(C)=C1O [1 (TLM), thiolactomycin]
M. tuberculosis H37Rv [4]; listed as TLM
  MIC: 13 µg/ml and 62.5 µM
[6]
  oral availability: orally available
  toxicity: non-toxic

## COC(=O)c1nc(NC(=O)CBr)sc1-c1ccccc1 [Compound 14, Methyl 2-(2-bromoacetamido)-5-phenylthiazole-4-carboxylate]
other
  melting point: 218 to 220 °C
M. tuberculosis H37Rv [1]; [7]
  MIC: > 200 µg/mL
mtFabH [2]
  inhibition of mtFabH (in words): active against mtFabH
mtFabH [2]; [9]
  IC50: 3.1 µM and 3.22 µM
FAS-II
  inhibition of FAS-II (in words): selective against FAS-II

## Nc1nc(C(=O)O)c(-c2cccc(Cl)c2)s1 [Compound 11, 2-amino-5-(3-chlorophenyl)thiazole-4-carboxylic acid]
other
  melting point: 242 to 244 °C
M. tuberculosis H37Rv [1]
  inhibition of M. tuberculosis H37Rv (in words): active
M. tuberculosis H37Rv [1]; [10]
  MIC: 32 µg/mL and 125 µM
mtFabH [2]; [8]
  IC50: > 785 µM

## COC(=O)c1nc(NC(=O)CBr)sc1-c1cccc(Cl)c1 [Compound 3, methyl 2-(2-bromoacetamido)-5-(3-chlorophenyl)thiazole-4-carboxylate]
M. tuberculosis H37Rv [1]
  inhibition of M. tuberculosis H37Rv (in words): not active
M. tuberculosis H37Rv [1]; [7]
  MIC: > 200 µg/mL
mtFabH [2]
  inhibition of mtFabH (in words): active against mtFabH
mtFabH [2]; [9]
  IC50: 2.44 µM and 2.43 µM
FAS-II
  inhibition of FAS-II (in words): selective against FAS-II

From article PMC2680598 (PLoS ONE, 2009)
